Compound	melting point
Nc1cc(=O)n(C2CCCC2)c2nc(NC3CCCCC3)ncc12 [Compound I-17, 5-Amino-2-cyclohexylamino-8-cyclopentyl-8H-pyrido[2,3-d]pyrimidin-7-one]	125 to 130 °C
Nc1cc(=O)n(C2CCCC2)c2nc(NC3CCOCC3)ncc12 [Compound I-33, 5-Amino-8-cyclopentyl-2-(tetrahydro-pyran-4-ylamino)-8H-pyrido[2,3-d]pyrimidin-7-one]	120 to 124 °C
Nc1cc(=O)n(C2CC2)c2nc(NC3CCCCC3)ncc12 [Compound I-26, 5-Amino-2-cyclohexylamino-8-cyclopropyl-8H-pyrido[2,3-d]pyrimidin-7-one]	117 to 118 °C
COC(=O)N[C@H]1CC[C@H](Nc2ncc3c(N)cc(=O)n(CCCO)c3n2)CC1 [Compound I-43, {4-[5-Amino-8-(3-hydroxy-propyl)-7-oxo-7,8-dihydro-pyrido[2,3-d]pyrimidin-2-ylamino]-cyclohexyl}-carbamic acid methyl ester]	190 to 191 °C
CCc1c(N)c2cnc(NC3CCCCC3)nc2n(C2CCCC2)c1=O [Compound I-36, 5-Amino-2-cyclohexylamino-8-cyclopentyl-6-ethyl-8H-pyrido[2,3-d]pyrimidin-7-one]	229.8 to 230.5 °C
Cc1cccc(C)c1Nc1ncc2c(N)c(C)c(=O)n(C3CCC3)c2n1 [Compound I-70, 5-Amino-8-cyclobutyl-2-(2,6-dimethyl-phenylamino)-6-methyl-8H-pyrido[2,3-d]pyrimidin-7-one]	213 to 214 °C
Nc1cc(=O)n(Cc2ccccc2)c2nc(NC3CCCCC3)ncc12 [Compound I-66, 5-Amino-8-benzyl-2-cyclohexylamino-8H-pyrido[2,3-d]pyrimidin-7-one]	221.9 to 223.8 °C
Nc1cc(=O)n(CC2CC2)c2nc(NC3CCCCC3)ncc12 [Compound I-12, 5-Amino-2-cyclohexylamino-8-cyclopropylmethyl-8H-pyrido[2,3-d]pyrimidin-7-one]	133 to 135 °C

Second part, the molecule after the results:

melting point	Compound
170 to 171 °C	CC(C)c1c(N)c2cnc(N[C@H]3CC[C@H](C(=O)N4CCC(O)CC4)CC3)nc2n(C2CCC2)c1=O [Compound I-25, 5-Amino-8-cyclobutyl-2-[4-(4-hydroxy-piperidine-1-carbonyl)-cyclohexylamino]-6-isopropyl-8H-pyrido[2,3-d]pyrimidin-7-one]
> 300 °C	CCc1c(N)c2cnc(N[C@H]3CC[C@H](NC(C)=O)CC3)nc2n(C2CCCC2)c1=O [Compound I-23, N-[4-(5-Amino-8-cyclopentyl-6-ethyl-7-oxo-7,8-dihydro-pyrido[2,3-d]pyrimidin-2-ylamino)-cyclohexyl]-acetamide]
> 300 °C	Cc1c(N)c2cnc(NC3CCN(S(C)(=O)=O)CC3)nc2n([C@@H]2CCOC2)c1=O [Compound I-53, 5-Amino-2-(1-methanesulfonyl-piperidin-4-ylamino)-6-methyl-8-(R)-tetrahydro-furan-3-yl-8H-pyrido[2,3-d]pyrimidin-7-one]
296.2 to 298.2 °C	CC(=O)N[C@H]1CC[C@H](Nc2ncc3c(N)c(C)c(=O)n(C4CCCC4)c3n2)CC1 [Compound I-41, N-[4-(5-Amino-8-cyclopentyl-6-methyl-7-oxo-7,8-dihydro-pyrido[2,3-d]pyrimidin-2-ylamino)-cyclohexyl]-acetamide]
173 to 174 °C	Cc1c(N)c2cnc(N[C@H]3CC[C@H](C(=O)N4CCC(O)CC4)CC3)nc2n([C@@H]2CCOC2)c1=O [Compound I-47, 5-Amino-2-[4-(4-hydroxy-piperidine-1-carbonyl)-cyclohexylamino]-6-methyl-8-(R)-tetrahydro-furan-3-yl-8H-pyrido[2,3-d]pyrimidin-7-one]
282 to 285 °C	CC(=O)N1CCC(Nc2ncc3c(N)cc(=O)n(C4CCCC4)c3n2)CC1 [Compound I-30, 2-(1-Acetyl-piperidin-4-ylamino)-5-amino-8-cyclopentyl-8H-pyrido[2,3-d]pyrimidin-7-one]

— patent US8268840B2, “Pyrimidinyl pyridone inhibitors of kinases” (Roche Palo Alto LLC, priority 2008, dated 2012)
